Article PMC11862924, “Phenylpyrazoles as Inhibitors of the m^6A RNA-Binding Protein YTHDF2” (JACS Au, 2025)
“Also recorded” adds a separate entry of the source.

Tests used:
K562 = experiment: CCK-8 proliferation assay, K562; assay type: cell-based; details: Homo sapiens, CCK-8 kit assay, triplicates, 72 h, read-out: Anti-proliferation activity against cancer cells (IC50), K562
Procedure: (§1) The JAR, K562, HCT116, and MOLM13 cells were seeded in 96-well plates (3000 cells/well). After being cultured overnight, compounds were added together with the DMSO treatment (0.1%) as a control. After 72 h, CCK-8 solution (Vazyme, A311) was added, and the cells were incubated at 37 °C for 4 h. The absorbance was measured at 450 nm using a plate reader (TECAN Spark).

[1] = MTT cytotoxicity assay, HCT116; assay type: cell-based; details: human, HCT116 cells, triplicates, read-out: Cytotoxicity against cancer cells (IC50), HCT116
Procedure: (§2) JAR, K562, and HCT116 cells were seeded in 96-well plates (3500 cells/well) and incubated for 8 h. The medium with different concentrations of compounds (100, 33.3, 11.1, 3.7, 1.2, and 0.4 μM) was added to the 96-well plates. Data were normalized to the medium with 0.1% DMSO. After incubation for 72 h, MTT solution (5 mg/mL, 20 μL) was added per well in a dark environment and incubated for 4 h. After the medium was discarded, DMSO (150 μL) was added per well, and the absorbance was measured at 492 nm by a plate reader (TECAN Spark).

[2] = target: T1, YTHDF2 (residues 383–553) (Homo sapiens, UniProt Q9Y5A9); experiment: Fluorescence polarization (FP) assay, YTHDF2–m6A RNA interaction; assay type: binding; details: 100 μM compound; YTHDF2 (residues 383–553, 20 nM), FAM-labeled m6A RNA probe 5 nM; average ± SD
T1 construct: A YTHDF2 YTH domain construct (residues 383–553) was subcloned to a pOPIN plasmid; made in house; host or cells: Escherichia coli BL21(DE3)
T1 sequence (Q9Y5A9 383-553): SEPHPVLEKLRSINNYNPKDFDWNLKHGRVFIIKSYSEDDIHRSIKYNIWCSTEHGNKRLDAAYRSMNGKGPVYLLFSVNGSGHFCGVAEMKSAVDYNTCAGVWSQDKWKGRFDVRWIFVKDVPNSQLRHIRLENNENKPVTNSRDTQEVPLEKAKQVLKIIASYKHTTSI
Procedure: The FP assay was performed in 384-well black plates (Corning no. 4514) with a total reaction volume of 15 μL. The final concentrations of protein (YTHDF2) and RNA were […], respectively, in a buffer containing 20 mM HEPES/KOH pH 7.5, 50 mM NaCl, 0.005% Tween 20, and 1 mM GSH (DTT). Compounds were incubated with protein, added FAM-m^6A RNA probe ([…](m6)ACUGUG) (purchased from IDT), and incubated at 4 °C for 30 min. The fluorescence polarization was measured using a plate reader (TECAN Spark) under an excitation wavelength of 485 nm and an emission wavelength of 535 nm with a bandwidth of 20 nm. […] The data were determined using GraphPad Prism 9.

HCT116 = experiment: CCK-8 proliferation assay, HCT116; assay type: cell-based; details: Homo sapiens, HCT-116; CCK-8 kit assay, triplicates, 72 h; read-out: Anti-proliferation activity against cancer cells (IC50), HCT116
Procedure: as §1

JAR = experiment: CCK-8 proliferation assay, JAR; assay type: cell-based; details: Homo sapiens; CCK-8 kit assay, triplicates, 72 h; read-out: Anti-proliferation activity against cancer cells (IC50), JAR
Procedure: as §1

[3] = MTT cytotoxicity assay, K562; assay type: cell-based; details: human, K562 cells, triplicates, read-out: Cytotoxicity against cancer cells (IC50), K562
Procedure: as §2

[4] = MTT cytotoxicity assay, JAR; assay type: cell-based; details: human, JAR cells, triplicates, read-out: Cytotoxicity against cancer cells (IC50), JAR
Procedure: as §2

YTHDF2 [5] = target: T2, YTHDF2 (Homo sapiens, UniProt Q9Y5A9); experiment: Electrophoretic mobility shift assay (EMSA); assay type: binding; details: for inhibition of the YTHDF2–m6A RNA interaction in EMSA at 100 μM (in words): 100 μM compound, 250 nM YTHDF2, FAM-labeled m6A RNA; for concentration-dependent inhibition of YTHDF2–m6A RNA complex formation in EMSA (in words): 3.1–100 μM compound, 250 nM YTHDF2, 20 nM FAM-labelled m6A RNA
T2 construct: A YTHDF2 YTH domain construct (residues 383–553) was subcloned to a pOPIN plasmid; made in house; host or cells: Escherichia coli BL21(DE3)
T2 sequence (Q9Y5A9 383-553): T1 sequence (Q9Y5A9 383-553)
Procedure: Compounds with different concentrations (3.1–100 μM) were incubated with 250 nM YTH-domain and 20 nM FAM-17mer-RNA in a buffer containing 20 mM HEPES, pH 8.2, 50 mM NaCl, 0.05% Triton X-100, and 5% v/v glycerol for 20 min at 4 °C. […] Gel imaging was performed in ChemiDoc MP (Bio-Rad), and Cy2/Alexa488 fluorescence was detected with a 1-min exposure time. Quantification of the gel image was performed by ImageJ.

YTHDF2 YTH domain = target: T3, YTHDF2 YTH domain (Homo sapiens, UniProt Q9Y5A9); experiment: AlphaScreen assay
T3 sequence (Q9Y5A9 383-553): T1 sequence (Q9Y5A9 383-553)
Procedure: Initially, the YTHDF2 YTH domain at different concentrations (0–2500 nM) was incubated with varied concentrations of RNA probes (5’-Bi-CGAm6ACUGUC–3′, IDT company) (5, 25, 50, and 100 nM) in 25 mM Hepes (pH 7.5), 100 mM NaCl, and 0.1% BSA to probe the optimal ratio between protein and RNA before the detection signal reached saturation. The AlphaScreen Histidine Detection Kit (Nickel Chelate) (PerkinElmer) 6760619 M and white 384-well Optiplates (PerkinElmer) were used. Anti-His receptor beads (PerkinElmer) (final concentration: 20 μg/mL) and streptavidin donor beads (final concentration: 20 μg/mL) were first added. The reaction mixture was then incubated at room temperature in a dark environment for 1 h to reach equilibrium. The optical signal was detected using a Tecan plate reader.
The inhibitory activities of the phenylpyrazoles (at 100 µM) against YTHDF2 binders
in the amplified luminescent proximity homogeneous assay (AlphaScreen).
phenylpyrazoles featuring a 2 -hydroxybenzoyl moiety R1 (blue) and a 4 -carboxyphenyl moiety
represent average values ± s.d.

YTHDF2 [6] = target: T2, YTHDF2; experiment: nanoDSF thermal shift assay; assay type: binding; details: for ΔTm at 5 µM: 5 μM compound; for ΔTm at 10 µM: 10 μM compound; for ΔTm at 25 µM: 25 μM compound
Procedure: NanoDSF was measured on a NanoTemper instrument (Prometheus NT.48). YTHDF2 protein was used at a concentration of 5 μM and incubated with 50, 25, 10, and 5 μM compound in buffer (100 mM KPi, pH 7.0, 250 mM NaCl, 10% Glycerol) for 50 min, in which 0.1% DMSO was used as the reference. The heat rate was set to 1 °C per minute, measured in a range between 20 and 90 °C.

Row | SMILES | IC50 (K562) | inhibition at 100 µM [2] | IC50 (HCT116) | concentration-dependent inhibition of YTHDF2–m6A RNA complex formation in EMSA (in words) (YTHDF2 [5]) | inhibition at 100 μM in AlphaScreen (YTHDF2 YTH domain; 100 μM compound) | inhibitory IC50 in AlphaScreen (in words) (YTHDF2 YTH domain; Figures S3 and S4) | ΔTm at 5 µM (YTHDF2 [6]) | ΔTm at 10 µM (YTHDF2 [6]) | ΔTm at 25 µM (YTHDF2 [6]) | IC50 at 72 h [1] | IC50 (JAR) | IC50 at 72 h [3] | IC50 at 72 h [4] | inhibition of the YTHDF2–m6A RNA interaction in EMSA at 100 μM (in words) (YTHDF2 [5])
1 | O=C(c1cnn(-c2ccc(C(F)(F)F)cc2)c1)c1ccccc1O [CK-48] | > 50 µM | 17.5 ± 4.2% | > 50 µM |  |  |  |  |  |  | 43.1 ± 8.6 µM | > 50 µM | 22.8 ± 2.5 µM | 37 ± 12.7 µM | 
2 | NS(=O)(=O)c1ccc(-n2cc(C(=O)c3ccccc3O)cn2)cc1 [CK-49] | > 50 µM | 1.7 ± 6.5% | > 50 µM |  |  |  |  |  |  | 29 ± 11.4 µM | > 50 µM | 20.1 ± 12.3 µM | 34.6 ± 5.9 µM | 
3 | CS(=O)(=O)c1ccc(-n2cc(C(=O)c3ccccc3O)cn2)cc1 [CK-50] | > 50 µM | 24.3 ± 4% | > 50 µM |  |  |  |  |  |  | > 50 µM | > 50 µM | 48.2 ± 11.1 µM | > 50 µM | 
4 | Cc1ccc(-n2cc(C(=O)c3ccccc3O)cn2)cc1 [CK-51] | 30.1 ± 6.3 µM | 4.1 ± 3.7% | > 50 µM |  |  |  |  |  |  | 18.5 ± 9.4 µM | > 50 µM | 20.2 ± 15.4 µM | 32.9 ± 14.2 µM | 
5 | Cc1ccc(O)c(C(=O)c2cnn(-c3ccc(C(=O)O)cc3)c2)c1 [CK-54] | > 50 µM | 20.9 ± 3.8% | > 50 µM |  |  |  |  |  |  | > 50 µM | > 50 µM | > 50 µM | > 50 µM | 

Further lines, with some results ahead:

Row | IC50 (K562) | inhibition at 100 µM [2] | IC50 (HCT116) | concentration-dependent inhibition of YTHDF2–m6A RNA complex formation in EMSA (in words) (YTHDF2 [5]) | inhibition at 100 μM in AlphaScreen (YTHDF2 YTH domain; 100 μM compound) | inhibitory IC50 in AlphaScreen (in words) (YTHDF2 YTH domain; Figures S3 and S4) | ΔTm at 5 µM (YTHDF2 [6]) | ΔTm at 10 µM (YTHDF2 [6]) | ΔTm at 25 µM (YTHDF2 [6]) | SMILES | IC50 at 72 h [1] | IC50 (JAR) | IC50 at 72 h [3] | IC50 at 72 h [4] | inhibition of the YTHDF2–m6A RNA interaction in EMSA at 100 μM (in words) (YTHDF2 [5])
6 | 31.2 ± 8.9 µM | 41.8 ± 3.2% | > 50 µM | dose-dependently inhibited | > 80% | low double-digit micromolar | 0.15 ± 0.14 °C | 0.43 ± 0.11 °C | 1.48 ± 0.52 °C | CC(C)c1ccc(O)c(C(=O)c2cnn(-c3ccc(C(=O)O)cc3)c2)c1 [CK-55] | 49.5 ± 8.5 µM | > 50 µM | 32.4 ± 22.1 µM | 44.4 ± 13.5 µM | potent inhibition; also recorded: potently inhibited
7 | > 50 µM | 37.4 ± 3.9% | > 50 µM |  |  |  |  |  |  | O=C(O)c1ccc(-n2cc(C(=O)c3cc(F)ccc3O)cn2)cc1 [CK-56] | 19.3 ± 2.5 µM | > 50 µM | 23.9 ± 7.5 µM | 41.2 ± 14.1 µM | potent inhibition
8 | > 50 µM | 63.6 ± 10.8% | > 50 µM |  |  |  |  |  |  | O=C(O)c1ccc(-n2cc(C(=O)c3cc(Br)ccc3O)cn2)cc1 [CK-60] | 12.5 ± 6.4 µM | > 50 µM | 16.4 ± 8.2 µM | 37.1 ± 11.4 µM | 
9 | > 50 µM | 34.4 ± 7.1% | > 50 µM | dose-dependently inhibited |  |  | 0.3 ± 0.05 °C | 0.5 ± 0.14 °C | 0.48 ± 0.3 °C | O=C(O)c1ccc(-n2cc(C(=O)c3cc([N+](=O)[O-])ccc3O)cn2)cc1 [CK-62] | > 50 µM | > 50 µM | > 50 µM | 42.6 ± 18.5 µM | potent inhibition; also recorded: potently inhibited
